The record followed here is patent US7482339B2, “2-Naphthylimino-1,3-thiazine derivative” (Shionogi and Co., Ltd., priority 2003, dated 2009).

For data set [1], the target named is T1, human CB1R (Homo sapiens, UniProt P21554).
T1 construct: expressed in transfected cells; host or cells: CHO cells (crude membrane fractions)
Kind of data set: Human CB receptor binding inhibition ([3H]CP55940), CB1R. Particulars: membranes of CB1R-expressing CHO cells, 0.5 nM [3H]CP55940, 2 hr at 25° C.; read-out: CB receptor binding inhibition Ki CB1. On the procedure: (§1) The crude membrane fractions were then prepared from the CB1R or CB2R-expressing CHO cells. Receptor binding assay was performed by incubating the membranes with each test compound and 38,000 dpm [^3H]CP55940 (at a final concentration of 0.5 nM: PerkinElmer Life & Analytical Sciences) in the assay buffer (50 mM Tris-HCl, […], 3 mM MgCl2, pH 7.4) containing 0.5% bovine serum albumin (BSA) for 2 hr at 25° C. The incubation mixture was filtered through 1% polyethylenimine (PEI)-treated GF/C glass filter and washed with 50 mM Tris-HCl (pH 7.4) containing 0.1% BSA. The radioactivity was then counted with a liquid scintillation counter. Nonspecific binding was determined in the presence of 10 μM WIN55212-2 (a CBR agonist described in the patent U.S. Pat. No. 508,122, Sigma), and the specific binding was calculated by subtracting the nonspecific binding from the total binding. The IC50 value for each test compound was determined as the concentration at which 50 % of the specific binding was inhibited. As a consequence of these studies, the Ki values of each test compound were determined from the IC50 value and the Kd vale of [^3H]CP55940.

Data set [2] deals with T2, human CB2R (Homo sapiens, UniProt P34972).
T2 construct: expressed in transfected cells; host or cells: CHO cells (crude membrane fractions)
Kind of data set: Human CB receptor binding inhibition ([3H]CP55940), CB2R. Particulars: membranes of CB2R-expressing CHO cells, 0.5 nM [3H]CP55940, 2 hr at 25° C.; read-out: CB receptor binding inhibition Ki CB2. Here is the method: as §1

In data set [3] the target is T1, human CB1R. Briefly: CBR-mediated suppression of forskolin-stimulated cAMP synthesis, CHO cells expressing CB1R. In kind it is cell-based. Particulars: 4 μM forskolin, read-out: Inhibition of cAMP synthesis IC50 CB1. Here is the method: (§2) The CHO cells expressing human CB1R or CB2R were incubated with test compounds for 15 min. After the incubation, 4 μM forskolin (Sigma) was added and the cells were incubated for 20 min. The reaction was stopped by the addition of 1N HCl and the amount of cAMP in the cell supernatant was measured using an Cyclic AMP kit (CIS bio international) according to the manufacture's protocol. The cAMP amount increased by forskolin compared to that in the absence of forskolin was defined as 100%, and the IC50 value of each test compound was determined as the concentration at which 50% of the forskolin-stimulated cAMP synthesis was inhibited.

Data set [4] deals with T2, human CB2R. Briefly: CBR-mediated suppression of forskolin-stimulated cAMP synthesis, CHO cells expressing CB2R. Particulars: 4 μM forskolin, read-out: Inhibition of cAMP synthesis IC50 CB2. In kind it is cell-based. Here is the method: as §2
Data set [5] concerns formalin-induced hyperalgesia in ICR mice. Kind of data set: Inhibitory effect against formalin-induced hyperalgesia in ICR mice. In kind it is in vivo. Particulars: Mus musculus, male ICR mice, oral administration 2 h prior to formalin. Here is the method: The inhibitory effects of the compounds of the present invention against formalin-induced hyperalgesia were examined in male ICR mice (5 W). Test compounds were dissolved in sesami oil and applied orally 2 h prior to the subcutaneous formalin injection (2% 20 μL) into the right hind paw. In this experiment, observation period was set to 30 min and divided into two parts, the first 5 minutes immediately after the formalin injection (first phase) and 10 to 30 min minutes after the formalin injection (second phase). The strength for pain sensation was evaluated by the total time for licking and biting behavior. The inhibitory effect of the test compounds on such behavior was evaluated and the ED50 value was calculated.

Data set [6] concerns compound 48/80-induced pruritus in ICR strain mice. Kind of data set: Inhibitory effect on compound 48/80-induced pruritus in ICR strain mice. In kind it is in vivo. Particulars: Mus musculus, po, 0.5 h; female ICR strain mice, orally administered once, scratching counted for 30 min; read-out: anti-pruritic effect ED50. Here is the method:
The experiment was carried out by the method of Inagaki et al. (Eur J Pharmacol 1999;367:361-371) with some modifications. Briefly, the back of female ICR strain mice was clipped, and compound 48/80 (3 μg/50 μL/site) was injected intradermally to elicit the response. The number of scratching behavior to the injection site by hind paws, which was observed immediately after the injection, was counted for 30 min. Test compounds, dissolved in sesame oil, were orally administered once. […] the injection of compound 48/80 at pre-determine time when the maximal plasma concentration of the compound was obtained. The inhibitory effect against pruritus was evaluated by comparing the number of scratching in the compound-administered group with that in the vehicle-administered group, and then ED50 value was calculated.

[7] abbreviates: 10 to 30 min after formalin injection, read-out: Inhibitory effect against formalin-induced hyperalgesia (ED50) Second phase.
The mark [8] stands for this setting: first 5 minutes after formalin injection, read-out: Inhibitory effect against formalin-induced hyperalgesia (ED50) First phase.

Molecules are shown by their SMILES. Where two headings read alike, the source gives them in different places.

T2 sequence (P34972 whole entry): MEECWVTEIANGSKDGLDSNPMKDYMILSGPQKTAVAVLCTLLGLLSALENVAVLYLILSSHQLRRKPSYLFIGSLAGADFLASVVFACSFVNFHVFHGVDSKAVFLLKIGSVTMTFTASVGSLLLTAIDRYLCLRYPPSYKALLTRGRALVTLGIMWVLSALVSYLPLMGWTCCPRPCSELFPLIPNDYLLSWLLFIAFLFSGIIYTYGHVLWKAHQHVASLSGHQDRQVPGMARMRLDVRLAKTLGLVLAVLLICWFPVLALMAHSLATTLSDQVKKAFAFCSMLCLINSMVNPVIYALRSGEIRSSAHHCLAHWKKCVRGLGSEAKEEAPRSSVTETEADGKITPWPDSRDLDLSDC
T1 sequence (P21554 whole entry): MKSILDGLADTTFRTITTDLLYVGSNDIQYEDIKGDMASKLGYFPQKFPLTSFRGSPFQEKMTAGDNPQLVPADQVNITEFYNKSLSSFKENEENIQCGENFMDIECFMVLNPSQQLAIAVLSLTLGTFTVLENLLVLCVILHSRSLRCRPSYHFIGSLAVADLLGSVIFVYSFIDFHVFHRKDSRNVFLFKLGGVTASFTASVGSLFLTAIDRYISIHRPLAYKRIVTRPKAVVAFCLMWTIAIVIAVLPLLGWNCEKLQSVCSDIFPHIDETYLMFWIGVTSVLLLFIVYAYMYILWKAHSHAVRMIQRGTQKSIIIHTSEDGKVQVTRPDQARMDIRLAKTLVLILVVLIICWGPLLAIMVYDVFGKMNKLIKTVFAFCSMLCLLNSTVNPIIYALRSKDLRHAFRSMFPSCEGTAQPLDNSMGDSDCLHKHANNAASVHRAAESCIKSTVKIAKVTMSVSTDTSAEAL

For the compound `CCCC1(CCC)CSC(=Nc2cccc3ccccc23)N(C(=S)SC)C1` [Compound I-22], the melting point (as a rule, the temperature of the solid-liquid transition) was 139 to 140.5 °C. The inhibition constant Ki (commonly the equilibrium dissociation constant of an inhibitor or competing ligand from its target) at human CB1R [1] was 0.02 µM. Moreover, the Ki at human CB2R [2] is 0.0015 µM.
`CSC(=S)N1CC2(CCCCC2)CSC1=Nc1cccc2ccccc12` [Compound I-23, 3-[(methylthio)thiocarbonyl]-2-(1-naphthylimino)-5,5-pentamethylene-1,3-thiazine] registered a melting point of 118 to 119 °C. For the same compound, the inhibition constant Ki on human CB1R [1] turned out to be 0.0296 µM. Moreover, the Ki on human CB2R [2] was determined as 0.006 µM. Further, the IC50 (in general, the point on the concentration scale where inhibition reaches its midpoint) on human CB1R [3] amounted to 0.0104 µM. Besides, at human CB2R [4], the half-inhibitory concentration (IC50) stood at 0.0017 µM. In data set [5] (setting [7]), the 50% effective dose (ED50) (in general, the dose that gives a 50% effect, or the effect in half of the subjects) came out at 1 mg/kg. The median effective dose (ED50) in data set [5] (setting [8]) stood at 1.5 mg/kg. Also, the median effective dose (ED50) in data set [6] amounted to 0.54 mg/kg.
The compound `CCCC1(CCC)CSC(=Nc2cccc3ccccc23)N(C(=O)SC)C1` [Compound I-25] yielded a melting point of 108.5 to 109.5 °C. The inhibition constant (Ki) on human CB1R [1] worked out at 0.0425 µM. In addition, at human CB2R [2], the Ki was determined as 0.001 µM.
`CSC(=S)N1CC(C(C)C)(C(C)C)CSC1=Nc1cccc2ccccc12` [Compound I-27]: the melting point was 121 to 122 °C. Further, the Ki on human CB1R [1] was 0.013 µM. Further, the inhibition constant (Ki) on human CB2R [2] was 0.0003 µM. In addition, the half-maximal inhibitory concentration (IC50) on human CB1R [3] is 0.0081 µM.
As to `C=CCC1(CC=C)CSC(=Nc2cccc3ccccc23)N(C(=S)SC)C1` [Compound I-28], the values for the Ki at human CB1R [1] and on human CB2R [2] were 0.0314 µM and 0.0048 µM, respectively.
The compound `CSC(=O)N1CC(C(C)C)(C(C)C)CSC1=Nc1cccc2ccccc12` [Compound I-29] yielded a melting point of 98 to 99 °C. Also, at human CB1R [1], the Ki was found to be 0.006 µM. For the same compound, the inhibition constant (Ki) on human CB2R [2] is 0.0017 µM. The half-maximal inhibitory concentration (IC50) at human CB1R [3] was 0.0175 µM. In addition, the ED50 in data set [5] (setting [7]) was 3.5 mg/kg. The ED50 in data set [5] (setting [8]) was found to be 3.6 mg/kg.
Consider `CSC(=S)N1CC2(CCCCC2)CSC1=Nc1ccc(Cl)c2ccccc12` [Compound I-33], for which the melting point was in the range of 181 to 182 °C. Further, the Ki at human CB1R [1] amounted to 0.0207 µM. Moreover, the Ki at human CB2R [2] worked out at 0.0012 µM.
As to `CSC(=S)N1CC(C(C)C)(C(C)C)CSC1=Nc1ccc(N(C)C)c2ccccc12` [Compound I-43, 3-[(methylthio)thiocarbonyl]-2-(4-dimethylamino-1-naphthylimino)-5,5-diisopropyl-1,3-thiazine], the Ki on human CB1R [1] came out at 0.0214 µM; at human CB2R [2], 0.0113 µM.
On the same counts, the results for `CSC(=S)N1CC(C(C)C)(C(C)C)CSC1=Nc1cccc2cc(OCC(=O)OC(C)(C)C)ccc12` [Compound I-77] are 0.035 µM and 0.0015 µM.
As for `CSC(=S)N1CC(C(C)C)(C(C)C)CSC1=Nc1ccc(Cl)c2ccccc12` [Compound I-113], the melting point was in the range of 86.5 to 87.5 °C. In addition, on human CB1R [1], the Ki came to 0.01 µM. Moreover, the inhibition constant (Ki) at human CB2R [2] was found to be 0.0009 µM. The half-inhibitory concentration (IC50) on human CB1R [3] was 0.013 µM. Also, the IC50 at human CB2R [4] is 0.0015 µM.
The matching figures for `CSC(=O)N1CC(C(C)C)(C(C)C)CSC1=Nc1ccc(Cl)c2ccccc12` [Compound I-114]: 111.5 to 112.5 °C, 0.025 µM, 0.0059 µM, 0.024 µM and 0.048 µM.
On to `CSC(=S)N1CC2(CCCCC2)CSC1=Nc1ccc(F)c2ccccc12` [Compound I-140], for which the melting point was in the range of 139 to 140 °C. Besides, at human CB1R [1], the inhibition constant Ki stood at 0.059 µM. For the same compound, the Ki at human CB2R [2] came out at 0.0008 µM. Further, the IC50 at human CB1R [3] was 0.027 µM.
The matching figures for `CSC(=S)N1CC(C(C)C)(C(C)C)CSC1=Nc1ccc(F)c2ccccc12` [Compound I-142]: 118 to 119 °C, 0.02 µM, 0.0012 µM and 0.014 µM.
The matching figures for `CSC(=O)N1CC(C(C)C)(C(C)C)CSC1=Nc1ccc(F)c2ccccc12` [Compound I-143]: 109 to 110 °C, 0.029 µM, 0.0014 µM and 0.035 µM.
As to `CSC(=S)N1CC2(CCCCC2)CSC1=Nc1ccc(C#N)c2ccccc12` [Compound I-144], the melting point lay within 164 to 165 °C. Moreover, the Ki on human CB1R [1] came to 0.054 µM. The Ki on human CB2R [2] worked out at 0.001 µM. The IC50 on human CB1R [3] came out at 0.052 µM.
